We go through 10 compounds from patent US12312370B2, “Immunoproteasome inhibitors” (Principia Biopharma Inc., priority 2017, dated 2025).

Test [1] deals with T1, PBMC/LMP7 (Homo sapiens, UniProt P28062). Nature of the test: Proteasome-Glo inhibition of proteasome activity in cells, PBMC/LMP7. The format is cell-based. The note with it: 2 h incubation at 37° C. The procedure:
(§1) The cell-based effects of a compound described herein on the immunoproteasome were determined by measuring inhibition of proteasome activity in cells using the Proteasome-Glo™ Cell-Based Reagent (Promega, Madison WI). The Proteasome-Glo™ assay contains a specific luminogenic proteasome substrate in a buffer optimized for cell permeabilization, proteasome activity, and luciferase activity. For the chymotrypsin-like activity (LMP7 and β5c), the peptide substrate is Suc-LLVY-aminoluciferin (Succinyl-leucine-leucine-valine-tyrosine-aminoluciferin). Cleavage of the substrate by proteasome results in luminescent signal which is proportional to the proteasome activity. The cell line THP-1 (a monocytic leukemia cell line enriched in immunoproteasome), the cell line HT-29 (a colorectal adenocarcinoma cell line enriched in constitutive proteasome), and primary human peripheral blood mononuclear cells (PBMC) were used to assess proteasome activity. Cells were seeded in a 96-well plate at 10,000 cells per well in RPMI 1640 high glucose medium with 10% fetal bovine scrum (FBS). Compound dilutions were added to cells starting at a concentration of 5 uM and decreasing in tripling dilutions. The final DMSO concentration was 1%. The concentration range was adjusted as needed for compounds of different potencies. The cells treated with compounds were incubated for 2 h at 37° C. in 5% CO2. At the end of the 2 hour incubation period, cells were transferred to white 384 well assay plates. 20 uL of Proteasome-Glo™ Reagent was added to each well and incubated for 10 minutes at rt. The plate was read in the Analyst HT instrument (Molecular Devices, Sunnyvale, CA) using luminescence mode. The percent inhibition of activity was plotted as a function of log compound concentration. The IC50 was then calculated for each compound using Prism software from GraphPad Software Inc. (San Diego, CA).

Test [2] concerns the target T2, HT29/B5c (Homo sapiens, UniProt P28074). Nature of the test: Proteasome-Glo inhibition of proteasome activity in cells, HT29/B5c. The format is cell-based. The settings on record: HT-29 cells, 2 h incubation at 37° C. The procedure: as §1
The target of test [3] is immunoproteasome LPM2/β1i subunit (Homo sapiens, UniProt P28065). Briefly: Caliper-based proteasome enzymatic activity assay, LMP2. In kind it is biochemical. The settings on record: human recombinant immunoproteasome 0.3 nM, FAM-labeled peptide substrate 1 μM, rt 2 h.
For test [4], the target named is constitutive proteasome β5c unit (Homo sapiens, UniProt P28074). Briefly: Caliper-based proteasome enzymatic activity assay, β5c. In kind it is biochemical. The note with it: human recombinant constitutive proteasome 0.3 nM, FAM-labeled peptide substrate 1 μM, rt 3 h; read-out: β5c subunit IC50.
For test [5], the target named is immunoproteasome LMP7/B5i subunit (Homo sapiens, UniProt P28062). Nature of the test: Caliper-based proteasome enzymatic activity assay, LMP7. The format is biochemical. The settings on record: human recombinant immunoproteasome 0.3 nM, FAM-labeled peptide substrate 1 μM, rt 3 h; read-out: LMP7 subunit IC50.
Test [6] addresses T2, HT29/B5c. Briefly: Durability of binding in cells, wash-out assay, HT29/B5c. The format is cell-based. The settings on record: 2 h incubation, inhibitor washout. As to the method:
(§2) The durability of binding of proteasome inhibitors was assessed in cells using wash-out assays and the Proteasome-Glo™ Reagent kit. THP-1 cells. HT-29 cells, or PBMC were incubated with an 8-fold dilution series of inhibitor for 2 h. Following 2 h of incubation, cells were washed using 3 occasions of centrifugation followed by resuspension in culture medium. Following inhibitor washout, cells were returned to culture for either 30 minutes, 4 h, or 18 h. Cells were then transferred to white 384 plates, and 20 uL of Proteasome-Glo™ Reagent was added to each well for 10 minutes. Plates were then read on an Analyst HT plate reader using luminescence mode. The percent inhibition of activity was plotted as a function of log compound concentration. The IC50 was then calculated for each compound using Prism software from GraphPad.

For test [7], the target named is T3, PBMC/LMP2 (Homo sapiens, UniProt P28065). Nature of the test: Durability of binding in cells, wash-out assay, PBMC/LMP2. In kind it is cell-based. The settings on record: 2 h incubation, inhibitor washout. The procedure:
as §2

For test [8], the target named is T3, PBMC/LMP2. Nature of the test: Proteasome-Glo inhibition of proteasome activity in cells, PBMC/LMP2. The format is cell-based. The settings on record: 2 h incubation at 37° C.
Test [9] has as its target T1, PBMC/LMP7. Briefly: Durability of binding in cells, wash-out assay, PBMC/LMP7. The format is cell-based. The note with it: 2 h incubation, inhibitor washout. The procedure:
as §2

Test [10] deals with multiple myeloma cell lines and primary patient tumor cells. The settings on record: including those resistant to conventional and novel prior therapies; cited from earlier work.
In test [11] the test system is Hashimoto's thyroiditis model. The settings on record: autoantibody-driven Hashimoto's thyroiditis model; cited from earlier work.
Test [12] concerns Th1/17 differentiation. The settings on record: mouse; cited from earlier work.
The test system of test [13] is Th1/17 differentiation. The settings on record: human; cited from earlier work.
The test system of another test is MRL/lpr lupus model. The settings on record: cited from earlier work.
The subject of test [14] is murine collagen-induced arthritis. The settings on record: cited from earlier work.
Test [15] has as its system murine DSS-induced colitis model. The settings on record: cited from earlier work.
Another test concerns prostate PC-3 cell line. The settings on record: PC-3 cell line in vitro; cited from earlier work.
The test system of another test is tumor growth. The settings on record: in vivo; cited from earlier work.

Read-outs that look alike come from different tables or passages of the source.

In general, IC50 refers to the concentration that gives 50% inhibition. For `CC(C)C=C(C#N)C(=O)NCCCC[C@H](NCC(F)(F)F)C(=O)N[C@@H](Cc1ccccc1)B(O)O` [Example 13, ((R)-1-((S)-6-(2-cyano-4-methylpent-2-enamido)-2-((2,2,2-trifluoroethyl)amino)hexanamido)-2-phenylethyl)boronic acid], the IC50 against PBMC/LMP7 [1] was 50 nM; against HT29/B5c [2], 242 nM; in [3], greater than 5000 nM; in [4], 292 nM; in test [5] it was 67.1 nM.

On to `CC(C)C=C(C#N)C(=O)N1CCC[C@@H]1COC[C@H](NC(=O)c1cc(Cl)ccc1Cl)C(=O)N[C@@H](Cc1ccccc1)B(O)O` [Example 14, ((R)-1-((S)-3-(((R)-1-(2-cyano-4-methylpent-2-enoyl)pyrrolidin-2-yl)methoxy)-2-(2,5-dichlorobenzamido)propanamido)-2-phenylethyl)boronic acid], for which the IC50 against PBMC/LMP7 [1] came to 31 nM; on HT29/B5c [6] (30 min in culture), 82 nM; at HT29/B5c [6] (4 hr in culture) it was 87 nM; on HT29/B5c [6] (18 hr in culture), 1850 nM; against HT29/B5c [2], 60 nM; at PBMC/LMP2 [7] (30 min in culture), 27 nM. The IC50 at PBMC/LMP2 [7] (4 hr in culture) was 505 nM; on PBMC/LMP2 [7] (18 hr in culture), 2960 nM; against PBMC/LMP2 [8], 274 nM; in test [3] it was 138 nM; at PBMC/LMP7 [9] (30 min in culture), 50 nM; on PBMC/LMP7 [9] (4 hr in culture), 93 nM. Also, the IC50 at PBMC/LMP7 [9] (18 hr in culture) came out at 146 nM; in [4] it was 2.4 nM; in [5], 1.7 nM.

As for `C=CC(=O)N(C)c1cccc(C[C@H](NC(=O)c2cc(Cl)ccc2Cl)C(=O)N[C@@H](Cc2ccccc2)B(O)O)c1` [Example 15, ((R)-1-((S)-2-(2,5-dichlorobenzamido)-3-(3-(N-methylacrylamido)phenyl)propanamido)-2-phenylethyl)boronic acid], the IC50 worked out at 35 nM against PBMC/LMP7 [1]; 141 nM against HT29/B5c [2]; 2.7 nM in [3]; 5 nM in [4]; 4.3 nM in test [5].

For `CC(C)C=C(C#N)C(=O)N(C)c1cccc(C[C@H](NC(=O)c2cc(Cl)ccc2Cl)C(=O)N[C@@H](Cc2ccccc2)B(O)O)c1` [Example 20, ((R)-1-((S)-3-(3-(2-cyano-N,4-dimethylpent-2-enamido)phenyl)-2-(2,5-dichlorobenzamido)propanamido)-2-phenylethyl)boronic acid], the IC50 against PBMC/LMP7 [1] was determined as 34 nM; against PBMC/LMP2 [8], 208 nM; in test [3], 483 nM; in test [4], 8.1 nM; in [5], 2.4 nM.

Consider `CC(C)C=C(C#N)C(=O)N1CCCC[C@@H]1COC[C@H](NCC(F)(F)F)C(=O)N[C@@H](Cc1ccccc1)B(O)O` [Example 25, ((R)-1-((S)-3-(((R)-1-(2-cyano-4-methylpent-2-enoyl)piperidin-2-yl)methoxy)-2-((2,2,2-trifluoroethyl)amino)propanamido)-2-phenylethyl)boronic acid], for which the IC50 was determined as 28 nM at PBMC/LMP7 [1], 701 nM in [3], 411 nM in [4] and 10 nM in test [5].

Consider `CC(C)C=C(C#N)C(=O)N1CCC(CCCC(=O)N[C@@H](Cc2ccccc2)B(O)O)CC1` [Example 29, (R)-(1-(4-(1-(2-cyano-4-methylpent-2-enoyl)piperidin-4-yl)butanamido)-2-phenylethyl)boronic acid], for which the IC50 against PBMC/LMP7 [1] is 307 nM; against HT29/B5c [2], 3590 nM; in test [3], greater than 5000 nM; in [4] it was 964 nM; in test [5], 319 nM.

For `CC(C)C=C(C#N)C(=O)N1CCC[C@@H]1CNC(=O)N[C@@H](Cc1ccccc1)B(O)O` [Example 32, ((R)-1-(3-(((R)-1-(2-cyano-4-methylpent-2-enoyl)pyrrolidin-2-yl)methyl)ureido)-2-phenylethyl)boronic acid], the IC50 against PBMC/LMP7 [1] was 110 nM; in [3] it was greater than 5000 nM; in [4], greater than 5000 nM; in [5], 37.2 nM.

Regarding `CC1=C(C(=O)N[C@H](C)C(=O)N[C@@H](Cc2c[nH]c3ccccc23)C(=O)N[C@@H](Cc2ccccc2)C(=O)[C@@]2(C)CO2)Cc2ccccc21` [PR-924], the “growth of multiple myeloma cell lines and primary patient tumor cells” value in test [10] is “inhibit growth”.

With `COc1ccc(C[C@H](NC(=O)[C@H](C)NC(=O)CN2CCOCC2)C(=O)N[C@@H](Cc2ccccc2)C(=O)[C@@]2(C)CO2)cc1` [PR-957], the efficacy result in [11] is on record as “efficacious”. Besides, the Th1/17 differentiation entry in the test on Th1/17 differentiation [12] is “potently block”. The Th1/17 differentiation result with Th1/17 differentiation [13] is “potently block”. Moreover, in the test on MRL/lpr lupus model, the disease progression entry is recorded as “prevented disease progression”; the “plasma cell numbers and anti-dsDNA IgG levels” value is “reduced plasma cell numbers and anti-dsDNA IgG levels”. Further, the disease activity entry in [14] is given as “significantly inhibit disease activity”. Besides, in test [15], the “inflammation and tissue destruction” value is “reduced inflammation and tissue destruction”.

As to `CCCCCCC(=O)N[C@@H](C)C(=O)N[C@@H](CC(C)C)C(=O)[C@@]1(CO[Si](C)(C)C(C)(C)C)CO1` [UK-101], the apoptosis entry with prostate PC-3 cell line was “induced apoptosis”. The tumor growth result in the test on tumor growth is recorded as “significantly suppressed tumor growth”.
